Numbers after ± are expanded uncertainties.
Legend:
[1] = xn = mol fraction of the nth substance listed; settings: 101 kPa, Liquid
[2] = 101 kPa, Liquid

Q: What does the source list for `CCCCOC(C)=O` [butyl ethanoate] + CO?
A: mass density ([1]; 298.15 K, x1 = 0.1004): 810.58 ± 0.86 kg/m3; speed of sound ([1]; 298.15 K, x1 = 0.1004): 1130 ± 4 m/s; mass density ([1]; 298.15 K, x1 = 0.2329): 831.49 ± 0.88 kg/m3; speed of sound ([1]; 298.15 K, x1 = 0.2329): 1151 ± 4 m/s; mass density ([1]; 298.15 K, x1 = 0.2996): 839.18 ± 0.88 kg/m3; speed of sound ([1]; 298.15 K, x1 = 0.2996): 1160 ± 4 m/s; mass density ([1]; 298.15 K, x1 = 0.4008): 848.46 ± 0.88 kg/m3; speed of sound ([1]; 298.15 K, x1 = 0.4008): 1171 ± 4 m/s; mass density ([1]; 298.15 K, x1 = 0.498): 855.46 ± 0.88 kg/m3; speed of sound ([1]; 298.15 K, x1 = 0.498): 1179 ± 4 m/s; mass density ([1]; 298.15 K, x1 = 0.5988): 861.3 ± 0.88 kg/m3; speed of sound ([1]; 298.15 K, x1 = 0.5988): 1185 ± 4 m/s; mass density ([1]; 298.15 K, x1 = 0.6994): 866.05 ± 0.87 kg/m3; speed of sound ([1]; 298.15 K, x1 = 0.6994): 1189 ± 4 m/s; mass density ([1]; 298.15 K, x1 = 0.7912): 869.71 ± 0.87 kg/m3; speed of sound ([1]; 298.15 K, x1 = 0.7912): 1191 ± 4 m/s; mass density ([1]; 298.15 K, x1 = 0.8992): 873.3 ± 0.87 kg/m3; speed of sound ([1]; 298.15 K, x1 = 0.8992): 1191 ± 4 m/s; mass density ([1]; 298.15 K, x1 = 1): 876.18 ± 0.86 kg/m3; speed of sound ([1]; 298.15 K, x1 = 1): 1190 ± 4 m/s; mass density ([1]; 303.15 K, x1 = 0.1004): 805.75 ± 0.9 kg/m3; speed of sound ([1]; 303.15 K, x1 = 0.1004): 1112 ± 4 m/s; mass density ([1]; 303.15 K, x1 = 0.2329): 826.61 ± 0.92 kg/m3; speed of sound ([1]; 303.15 K, x1 = 0.2329): 1132 ± 4 m/s; mass density ([1]; 303.15 K, x1 = 0.2996): 834.29 ± 0.92 kg/m3; speed of sound ([1]; 303.15 K, x1 = 0.2996): 1140 ± 4 m/s; mass density ([1]; 303.15 K, x1 = 0.4008): 843.52 ± 0.92 kg/m3; speed of sound ([1]; 303.15 K, x1 = 0.4008): 1151 ± 4 m/s; mass density ([1]; 303.15 K, x1 = 0.498): 850.52 ± 0.92 kg/m3; speed of sound ([1]; 303.15 K, x1 = 0.498): 1159 ± 4 m/s; mass density ([1]; 303.15 K, x1 = 0.5988): 856.34 ± 0.92 kg/m3; speed of sound ([1]; 303.15 K, x1 = 0.5988): 1165 ± 4 m/s; mass density ([1]; 303.15 K, x1 = 0.6994): 861.1 ± 0.91 kg/m3; speed of sound ([1]; 303.15 K, x1 = 0.6994): 1170 ± 4 m/s; mass density ([1]; 303.15 K, x1 = 0.7912): 864.74 ± 0.91 kg/m3; speed of sound ([1]; 303.15 K, x1 = 0.7912): 1172 ± 4 m/s; mass density ([1]; 303.15 K, x1 = 0.8992): 868.38 ± 0.91 kg/m3; speed of sound ([1]; 303.15 K, x1 = 0.8992): 1173 ± 4 m/s; mass density ([1]; 303.15 K, x1 = 1): 871.27 ± 0.9 kg/m3; speed of sound ([1]; 303.15 K, x1 = 1): 1173 ± 4 m/s; mass density ([1]; 308.15 K, x1 = 0.1004): 800.39 ± 0.94 kg/m3; speed of sound ([1]; 308.15 K, x1 = 0.1004): 1092 ± 4 m/s; mass density ([1]; 308.15 K, x1 = 0.2329): 821.09 ± 0.95 kg/m3; speed of sound ([1]; 308.15 K, x1 = 0.2329): 1111 ± 4 m/s; mass density ([1]; 308.15 K, x1 = 0.2996): 828.66 ± 0.96 kg/m3; speed of sound ([1]; 308.15 K, x1 = 0.2996): 1118 ± 4 m/s; mass density ([1]; 308.15 K, x1 = 0.4008): 837.84 ± 0.96 kg/m3; speed of sound ([1]; 308.15 K, x1 = 0.4008): 1128 ± 4 m/s; mass density ([1]; 308.15 K, x1 = 0.498): 844.77 ± 0.96 kg/m3; speed of sound ([1]; 308.15 K, x1 = 0.498): 1136 ± 4 m/s; mass density ([1]; 308.15 K, x1 = 0.5988): 850.55 ± 0.96 kg/m3; speed of sound ([1]; 308.15 K, x1 = 0.5988): 1141 ± 4 m/s; mass density ([1]; 308.15 K, x1 = 0.6994): 855.28 ± 0.95 kg/m3; speed of sound ([1]; 308.15 K, x1 = 0.6994): 1145 ± 4 m/s; mass density ([1]; 308.15 K, x1 = 0.7912): 858.91 ± 0.95 kg/m3; speed of sound ([1]; 308.15 K, x1 = 0.7912): 1148 ± 4 m/s; mass density ([1]; 308.15 K, x1 = 0.8992): 862.52 ± 0.94 kg/m3; speed of sound ([1]; 308.15 K, x1 = 0.8992): 1149 ± 4 m/s; mass density ([1]; 308.15 K, x1 = 1): 865.41 ± 0.94 kg/m3; speed of sound ([1]; 308.15 K, x1 = 1): 1150 ± 4 m/s; mass density ([1]; 313.15 K, x1 = 0.1004): 795.84 ± 0.98 kg/m3; speed of sound ([1]; 313.15 K, x1 = 0.1004): 1076 ± 4 m/s; mass density ([1]; 313.15 K, x1 = 0.2329): 816.38 ± 0.99 kg/m3; speed of sound ([1]; 313.15 K, x1 = 0.2329): 1093 ± 4 m/s; mass density ([1]; 313.15 K, x1 = 0.2996): 823.89 ± 1 kg/m3; speed of sound ([1]; 313.15 K, x1 = 0.2996): 1100 ± 4 m/s; mass density ([1]; 313.15 K, x1 = 0.4008): 833.02 ± 1 kg/m3; speed of sound ([1]; 313.15 K, x1 = 0.4008): 1109 ± 4 m/s; mass density ([1]; 313.15 K, x1 = 0.498): 839.91 ± 1 kg/m3; speed of sound ([1]; 313.15 K, x1 = 0.498): 1116 ± 4 m/s; mass density ([1]; 313.15 K, x1 = 0.5988): 845.66 ± 0.99 kg/m3; speed of sound ([1]; 313.15 K, x1 = 0.5988): 1122 ± 4 m/s; mass density ([1]; 313.15 K, x1 = 0.6994): 850.36 ± 0.99 kg/m3; speed of sound ([1]; 313.15 K, x1 = 0.6994): 1126 ± 4 m/s; mass density ([1]; 313.15 K, x1 = 0.7912): 853.98 ± 0.99 kg/m3; speed of sound ([1]; 313.15 K, x1 = 0.7912): 1128 ± 4 m/s; mass density ([1]; 313.15 K, x1 = 0.8992): 857.58 ± 0.98 kg/m3; speed of sound ([1]; 313.15 K, x1 = 0.8992): 1130 ± 4 m/s; mass density ([1]; 313.15 K, x1 = 1): 860.46 ± 0.98 kg/m3; speed of sound ([1]; 313.15 K, x1 = 1): 1131 ± 4 m/s

Q: With `CO` [methanol] as the compound, how does the mass density ([2]; 298.15 K) read?
A: The mass density was 786.38 ± 0.84 kg/m3.

Q: What about the speed of sound ([2]; 298.15 K) of the same compound?
A: The speed of sound was 1109 ± 4 m/s.

Q: What about the mass density ([2]; 303.15 K) of the same compound?
A: Its mass density is 781.65 ± 0.87 kg/m3.

Q: What about the speed of sound ([2]; 303.15 K) of the same compound?
A: Its speed of sound is 1092 ± 4 m/s.

Q: What about the mass density ([2]; 308.15 K) of the same compound?
A: The mass density was 776.52 ± 0.91 kg/m3.

Q: What about the speed of sound ([2]; 308.15 K) of the same compound?
A: The speed of sound was 1074 ± 4 m/s.

Q: What about the mass density ([2]; 313.15 K) of the same compound?
A: Its mass density is 772.15 ± 0.95 kg/m3.

Q: And the speed of sound ([2]; 313.15 K)?
A: The speed of sound was 1060 ± 4 m/s.

Q: For `CO` [methanol] + CC(=O)OC(C)(C)C, which mass density ([1]; 298.15 K, x2 = 0) is on record?
A: Its mass density is 786.38 ± 0.84 kg/m3.

Q: What about the speed of sound ([1]; 298.15 K, x2 = 0) of the same compound?
A: Its speed of sound is 1109 ± 4 m/s.

Q: And the mass density ([1]; 303.15 K, x2 = 0)?
A: The mass density was 781.65 ± 0.87 kg/m3.

Q: And the speed of sound ([1]; 303.15 K, x2 = 0)?
A: Its speed of sound is 1092 ± 4 m/s.

Q: And the mass density ([1]; 308.15 K, x2 = 0)?
A: The mass density was 776.52 ± 0.91 kg/m3.

Q: And the speed of sound ([1]; 308.15 K, x2 = 0)?
A: Its speed of sound is 1074 ± 4 m/s.

Q: And the mass density ([1]; 313.15 K, x2 = 0)?
A: Its mass density is 772.15 ± 0.95 kg/m3.

Q: What about the speed of sound ([1]; 313.15 K, x2 = 0) of the same compound?
A: Its speed of sound is 1060 ± 4 m/s.

Q: With `CO` [methanol] + CCCCOC(C)=O as the compound, how does the mass density ([1]; 298.15 K, x2 = 0) read?
A: Its mass density is 786.38 ± 0.84 kg/m3.

Q: And the speed of sound ([1]; 298.15 K, x2 = 0)?
A: Its speed of sound is 1109 ± 4 m/s.

Q: What about the mass density ([1]; 303.15 K, x2 = 0) of the same compound?
A: Its mass density is 781.65 ± 0.87 kg/m3.

Q: What about the speed of sound ([1]; 303.15 K, x2 = 0) of the same compound?
A: The speed of sound was 1092 ± 4 m/s.

Q: And the mass density ([1]; 308.15 K, x2 = 0)?
A: The mass density was 776.52 ± 0.91 kg/m3.

Q: And the speed of sound ([1]; 308.15 K, x2 = 0)?
A: The speed of sound was 1074 ± 4 m/s.

Q: And the mass density ([1]; 313.15 K, x2 = 0)?
A: The mass density was 772.15 ± 0.95 kg/m3.

Q: And the speed of sound ([1]; 313.15 K, x2 = 0)?
A: The speed of sound was 1060 ± 4 m/s.

From the NIST ThermoML archive (doi:10.1021/je900442b)
